Test results taken from US20030207933A1, “Compositions and methods for increasing the sensitivity of apoptosis-resistant tumor cells to inducers of apoptosis” (priority 2002, published 2003).
“Also recorded” adds a separate entry of the source.

How the values were obtained:
[1] = Body weight of RIF-1 tumor bearing mice
Text: Groups of five mice each were inoculated s.c. with RIF-1 cells. The tumors were allowed to grow for 12 days to a size of 0.5 cm diameter, which was designated day 0. […] The mice were weighed and the tumor size measured every day.

mice [2] = test: Multiple dose toxicity with histopathological analysis; format: in vivo
Procedure: In the present study, more extensive toxicity studies with histopathological analysis of seven different tissues was performed on W-143 at a commercial lab.
Groups of six mice (3 male and 3 females) each were given three i.p. injections at two day intervals of vehicle, doxorubicin 5 mg/kg alone, W-143 200 mg/kg alone or both together. On day 5 and day 15 after the last injection, mice were sacrificed, necropsied, and tissue samples processed. Tissues examined include bone marrow, liver, heart, small and large intestine, 1 sex organ, and kidney.

RIF-1 fibrosarcoma = RIF-1 fibrosarcoma tumor growth in vivo; parameters: species or system mice; conditions: for Inhibition of tumor growth compared to vehicle control: day 15
Text: The present study tested in the ability of W-188 to synergize with Dox and inhibit tumor growth in vivo. The RIF-1 fibrosarcoma model was used because this model has been well-characterized, and naturally expresses high Bcl-2 levels and has a consistent growth pattern (Nahabedian, M. Y., et al., J. Natl. Can. Inst., 1988, 80:739; Chang, M-J., et al., Cancer Res., 1994, 54:5380; Srivastana, M., et al., J. Biol. Chem., 2001, 276:15481).
Groups of five mice each were inoculated s.c. with RIF-1 cells. The tumors were allowed to grow for 12 days to a size of 0.5 cm diameter, which was designated day 0. The mice were then given five i.p. injections every other day with vehicle, Dox 2.5 mg/kg, Dox 5.0 mg/kg, W-188 100 mg/kg, and Dox 5.0 mg/kg+W-188 100 mg/kg. The mice were weighed and the tumor size measured every day.
The protocol was similar to that described for the W-188 experiment in Example 8, except that in this study, mice with established tumors received only three injections of W-143 or Dox every other day starting on day 0.

Bcl-2 = test: Western blot for expression of Bcl-2 in RIF-1 tumors in vivo; parameters: species or system mice; conditions: day 15
Text: Cells were dissociated, lysed, and the nuclei and mitochondria separated by differential centrifugation. RIF-1 cells cultured in vitro were processed in a similar manner as a positive control. Equal amounts of protein extracts were separated by electrophoresis and analyzed by Western blot for expression of Bcl-2. […] The pattern of Bcl-2 expression was similar in the nuclei, although the overall levels were lower than in the mitochondria. […] Most likely, this discrepancy can be explained by the fact that this line is transfected with exogenous Bcl-2, whereas the RIF-1 line expresses endogenous Bcl-2 under control of its natural promoter. […] Alternatively, W-188 and W-143 may differ in their mechanisms of action, although this conclusion seems less likely in view of the structural similarity of these two compounds.

HL-60 neo cells = test: DNA fragmentation (release of 3H-labeled DNA fragments) in vector control HL-60 neo cells; format: cell-based, human
Procedure: The present study evaluated the ability of W-188 to sensitize Bcl-2-overexpressing cells to induce apoptosis. The human myelogenous leukemia, HL-60, and the human B cell leukemia, PW, normally express very low levels of Bcl-2. As a model system, W-188 and various analogs and derivatives were tested in normal HL-60 and PW cells and in Bcl-2-transfected HL-60 and PW cells that overexpress high levels of Bcl-2 (see Gilbert et al., J. Cell Physiol., 1996, 171:299).
As depicted in FIG. 4, HL-60 cells (Panel A) and PW cells (Panel B) cells were exposed to various apoptosis inducers: TNF at 5 ng/ml; etoposide at 20 μM; and UV at 0.08 J/cm^2. The release of 3H-labeled DNA fragments was measured after 5 h. Normal HL-60 and PW cells were equally sensitive to apoptosis inducers as compared with cells that were transfected with vector encoding neomycin resistance (HL-60 neo and PW neo) only. […] W-188 alone was nontoxic. The addition of W-188 to the neo cell lines caused a 1.5-2 fold increase in DNA fragmentation in response to the various apoptosis inducers.

HL-60 Bcl-2 cells = test: DNA fragmentation (release of 3H-labeled DNA fragments) in Bcl-2-transfected HL-60 cells; format: cell-based, human
AP24 = test: Etoposide-induced activation of AP24 (AAPVase) in HL-60 and PW leukemia lines; format: cell-based, human; conditions: etoposide 50 μM, 3 h
[3] = Cytotoxicity to normal venous endothelial cells (MTT dye reduction assay); format: cell-based, human; conditions: human, normal venous endothelial cells, etoposide 100 μM, W-188 0 μg/mL; 6 h
overexpression of Bcl-2 = test: Comparison with compounds reported to counteract Bcl-2; format: cell-based; conditions: data not shown
Text: W-188 was then compared to other compounds previously reported to counteract Bcl-2 (Marchetti, P., et al., J. Immunol., 1996, 157:4830; Hirsch, T., et al., Exp. Cell Res., 1998, 241:426).

Ramos B lymphoma cells = test: Dox cytotoxicity by trypan blue exclusion in Ramos cells; format: cell-based; conditions: 24 hr
Procedure: In the present study, the sensitizing activity of W-188 and W-143 was tested in the Raji and Ramos cell lines. Since these two human B lymphoma lines naturally express high levels of anti-apoptotic Bcl-2 proteins, they may be more clinically relevant than the transfected HL-60-Bcl-2 line.
The sensitizing effects of W-143 and W-188 were first tested on these lines in vitro. […] Ramos cells were cultured with different concentrations of Dox with and without W-143 or W-188 at 20 μg/ml for 24 hr, and then viability assessed microscopically by counting at least 100 cells.

Water solubility = format: physicochemical
mice [4] = test: Acute single dose toxicity; format: in vivo; conditions: 1000 mg/kg single dose
Procedure: The present study assessed the acute single-dose toxicity of W-188 and W-143.
Solutions of W-188 were dissolved in DMSO and injected i.p. in groups of three mice each as well as vehicle control at 500 mg/kg.
Since W-143 is water-soluble, higher doses could be tested.
Therefore, the MTD (maximum tolerated dose) for a single dose of either compound is estimated to be 500 mg/kg.

[5] = W-143 100 mg/kg alone, data not shown

In the case of COc1cccc2c1C(=O)c1c(O)c3c(c(O)c1C2=O)C[C@@](O)(C(=O)CO)C[C@@H]3O[C@H]1C[C@H](N)[C@H](O)[C@H](C)O1 [Dox, doxorubicin, reference compound], the Body weight ([1]; Dox 5 mg/kg alone, FIG. 15) is reported as “toxic causing a significant weight loss on day 7-8”, the Histopathology (mice [2]; doxorubicin 5 mg/kg alone, three i.p. injections, day 5) is reported as “minor vacuolar changes in the liver” and the Histopathology (mice [2]; doxorubicin 5 mg/kg alone, day 15) is reported as “all tissues were normal”. For the same compound, the “Effect on tumor growth” value (RIF-1 fibrosarcoma; Dox 5 mg/kg alone, three injections every other day, FIG. 14) was “only a small effect on tumor growth”, the “Effect on tumor growth” value (RIF-1 fibrosarcoma; Dox alone at 2.5 or 5 mg/kg, five i.p. injections every other day, FIG. 11) was “very little effect on tumor growth” and the “Bcl-2 expression in tumor cell mitochondria” value (“Bcl-2 expression” below) (Bcl-2; Dox alone, FIG. 16) was “expressed high levels of Bcl-2”.
With COc1cc([C@@H]2c3cc4c(cc3[C@@H](O[C@@H]3O[C@@H]5CO[C@@H](C)O[C@H]5[C@H](O)[C@H]3O)[C@H]3COC(=O)[C@H]23)OCO4)cc(OC)c1O [Etoposide] the “% DNA Fragmentation” value (HL-60 neo cells; Exp 1, etoposide 5 μM alone) was 72%, the “% DNA Fragmentation” value (HL-60 neo cells; Exp 2, etoposide 10 μM alone) was 57% and the “% DNA Fragmentation” value (HL-60 neo cells; Exp 3, etoposide 5 μM alone) was 97%. The “% DNA Fragmentation” value (HL-60 neo cells; Exp 4, etoposide 5 μM alone) was 63%, the “% DNA Fragmentation” value (HL-60 neo cells; Exp 5, etoposide 10 μM alone) was 57% and the “% DNA Fragmentation” value (HL-60 Bcl-2 cells; Exp 1, etoposide 5 μM alone) was 0%. The “% DNA Fragmentation” value (HL-60 Bcl-2 cells; Exp 2, etoposide 10 μM alone) was 0%, the “% DNA Fragmentation” value (HL-60 Bcl-2 cells; Exp 3, etoposide 5 μM alone) was 24% and the “% DNA Fragmentation” value (HL-60 Bcl-2 cells; Exp 4, etoposide 5 μM alone) was 3%. The “% DNA Fragmentation” value (HL-60 Bcl-2 cells; Exp 5, etoposide 10 μM alone) was 0%, the “AP24 Activity (AAPVase, nmol/mg/hr)” value (AP24; HL-60 Bcl-2) was 14 nmol/mg/h and the “AP24 Activity (AAPVase, nmol/mg/hr)” value (AP24; HL-60 neo) was 100 nmol/mg/h. The “AP24 Activity (AAPVase, nmol/mg/hr)” value (AP24; PW Bcl-2) was 12 nmol/mg/h, the “AP24 Activity (AAPVase, nmol/mg/hr)” value (AP24; PW neo) was 88 nmol/mg/h and the cytotoxicity at 6 h, 100 μM [3] was 22 ± 3.4%.
With CCC(C)N(C)C(=O)c1cc2ccccc2c(-c2ccccc2Cl)n1 (stereo not shown) [PK11195] the “Reversal of the effect of overexpression of Bcl-2” value (overexpression of Bcl-2; at 20 μM (the highest non-toxic concentration)) was “completely ineffective”.
For CCC1=C(C)C(=O)NC1C (stereo not shown) [W-143, 3,5-dimethyl-4-ethyl-2-oxo-2,5-dihydropyrrole], the “Toxicity of compound alone” value (Ramos B lymphoma cells; 20 μg/ml, no Dox) was “completely nontoxic”, the “Increase of cytotoxicity mediated by Dox” value (Ramos B lymphoma cells; compound 20 μg/ml + Dox, FIG. 6) was “over two fold” and the Body weight ([1]; Dox + W-143 100 mg/kg, any time point) was “did not show any greater weight loss”. The Body weight ([1]; Dox + W-143 200 mg/kg, day 13) was “weighed just as much as mice treated with Dox alone on day 13”, the Body weight [1, 5] was “weighed similar to the vehicle control mice” and the Histopathology (mice [2]; W-143 200 mg/kg alone, three i.p. injections at two day intervals, day 5) was “minor vacuolar changes in the liver”. The Histopathology (mice [2]; W-143 200 mg/kg alone, day 15) was “all tissues were normal”, the Histopathology (mice [2]; doxorubicin 5 mg/kg + W-143 200 mg/kg, three i.p. injections, day 5) was “minor vacuolar changes in the liver” and the Histopathology (mice [2]; doxorubicin 5 mg/kg + W-143 200 mg/kg, day 15) was “all tissues were normal”. For the same compound, the “Inhibition of tumor growth compared to vehicle control” value (RIF-1 fibrosarcoma; Dox + W-143 100 mg/kg, p=0.005) was 70%, the “Inhibition of tumor growth compared to vehicle control” value (RIF-1 fibrosarcoma; Dox + W-143 200 mg/kg, p=0.001) was 83% and the “Effect on tumor growth” value (RIF-1 fibrosarcoma; [5]) was “did not decrease tumor growth”. The “Effect on tumor growth” value (RIF-1 fibrosarcoma; W-143 200 mg/kg alone, three injections, FIG. 14) was “only a small effect on tumor growth”, the “Effect on tumor growth” value (RIF-1 fibrosarcoma; W-143 + Dox combined) was “synergistically inhibited tumor growth” and the Water solubility (Water solubility) was “water soluble; also recorded: water-soluble”. The “Bcl-2 expression” value (Bcl-2; Dox + W-143, FIG. 16 lane 10) was “no detectable Bcl-2”, the “Bcl-2 expression” value (Bcl-2; W-143 alone, FIG. 16) was “expressed high levels of Bcl-2” and the “Sensitization to etoposide-induced apoptosis” value (HL-60 Bcl-2 cells) was “sensitize 1L-60-Bcl-2 cells to etoposide-induced apoptosis”. For the same compound, the “% DNA Fragmentation” value (HL-60 Bcl-2 cells; Exp 5, etoposide 10 μM + compound 10 μM) was 34% and the Deaths (mice [4]) was “All three mice injected with 1000 mg/kg of W-143 died within 24 h”.
With CC(=O)O[C@H]1C(=O)[C@@]2(C)[C@H]([C@H](OC(=O)c3ccccc3)[C@]3(O)C[C@H](OC(=O)[C@H](O)[C@@H](NC(=O)c4ccccc4)c4ccccc4)C(C)=C1C3(C)C)[C@]1(OC(C)=O)CO[C@@H]1C[C@@H]2O [taxol] the “Reversal of the effect of overexpression of Bcl-2, compared with W-188” value (overexpression of Bcl-2) was “inferior to W-188”.
